In patent US12048709B2 (scPharmaceuticals Inc., priority 2019, dated 2024):
Like-named read-outs stand apart in the source and are kept apart here.

Legend:
[1] = for Apparent pH: 2% Benzyl Alcohol
Procedure: (§1) Samples were tumbled for 48 hours at ambient conditions and protected from light.

[2] = not given; remark: listed apart in the source
[3] = Study 4
Procedure: as §1
A full factorial DOE study was performed to determine the optimal amounts of NMP, benzyl alcohol and buffer (tromethamine) required to produce the highest solubility. Any potential synergistic effects stemming from various excipient combinations were also investigated.

[4] = 200 mM Sodium Phosphate, target pH 6.0, t24 h
[5] = 200 mM Tromethamine/HCl, target pH 8.5, t2 h

Osmolarity (~50 mM Potassium Phosphate, target pH 6.0, t2 h): 108 mOsm/Kg
Osmolarity (~50 mM Potassium Phosphate, target pH 6.0, t24 h): 105 mOsm/Kg
Osmolarity (~50 mM Potassium Phosphate, target pH 6.0, t48 h): 115 mOsm/Kg
Osmolarity (~50 mM Potassium Phosphate, target pH 7.4, t2 h): 193 mOsm/Kg
Osmolarity (~50 mM Potassium Phosphate, target pH 7.4, t24 h): 190 mOsm/Kg
Osmolarity (~50 mM Potassium Phosphate, target pH 7.4, t48 h): 213 mOsm/Kg
Osmolarity (~50 mM Potassium Phosphate, target pH 8.5, t2 h): 265 mOsm/Kg
Osmolarity (~50 mM Potassium Phosphate, target pH 8.5, t24 h): 255 mOsm/Kg
Osmolarity (~50 mM Potassium Phosphate, target pH 8.5, t48 h): 283 mOsm/Kg
Osmolarity (~50 mM Sodium Phosphate, target pH 6.0, t2 h): 212 mOsm/Kg
Osmolarity (~50 mM Sodium Phosphate, target pH 6.0, t24 h): 118 mOsm/Kg
Osmolarity (~50 mM Sodium Phosphate, target pH 6.0, t48 h): 141 mOsm/Kg
Osmolarity (~50 mM Sodium Phosphate, target pH 7.4, t2 h): 232 mOsm/Kg
Osmolarity (~50 mM Sodium Phosphate, target pH 7.4, t24 h): 233 mOsm/Kg
Osmolarity (~50 mM Sodium Phosphate, target pH 7.4, t48 h): 237 mOsm/Kg
Osmolarity (~50 mM Sodium Phosphate, target pH 8.5, t2 h): 241 mOsm/Kg
Osmolarity (~50 mM Sodium Phosphate, target pH 8.5, t24 h): 242 mOsm/Kg
Osmolarity (~50 mM Sodium Phosphate, target pH 8.5, t48 h): 276 mOsm/Kg
Osmolarity (~50 mM Tromethamine/HCl, target pH 6.0, t2 h): 124 mOsm/Kg
Osmolarity (~50 mM Tromethamine/HCl, target pH 6.0, t24 h): 129 mOsm/Kg
Osmolarity (~50 mM Tromethamine/HCl, target pH 6.0, t48 h): 133 mOsm/Kg
Osmolarity (~50 mM Tromethamine/HCl, target pH 7.4, t2 h): 165 mOsm/Kg
Osmolarity (~50 mM Tromethamine/HCl, target pH 7.4, t24 h): 181 mOsm/Kg
Osmolarity (~50 mM Tromethamine/HCl, target pH 7.4, t48 h): 186 mOsm/Kg
Osmolarity (~50 mM Tromethamine/HCl, target pH 8.5, t2 h): 242 mOsm/Kg
Osmolarity (~50 mM Tromethamine/HCl, target pH 8.5, t24 h): 239 mOsm/Kg
Osmolarity (~50 mM Tromethamine/HCl, target pH 8.5, t48 h): 258 mOsm/Kg
Apparent pH ([1]; 100 mM Tromethamine pH 5.0, 25% NMP, t2 h): 5.0
Apparent pH ([1]; 100 mM Tromethamine pH 5.0, 25% NMP, t24 h): 4.6
Apparent pH ([1]; 100 mM Tromethamine pH 5.0, 25% NMP, t48 h): 5.1
Apparent pH ([1]; 100 mM Tromethamine pH = 4.0, 25% NMP, t2 h): 3.9
Apparent pH ([1]; 100 mM Tromethamine pH = 4.0, 25% NMP, t24 h): 3.6
Apparent pH ([1]; 100 mM Tromethamine pH = 4.0, 25% NMP, t48 h): 4.7
pH variability ([1]; Study 6, pH 4.0 test samples): 0.7 units
Osmolarity ([2]; 200 mM Citrate, target pH 6.0, t2 h): 516 mOsm/kg
Osmolarity ([2]; 200 mM Citrate, target pH 6.0, t24 h): 533 mOsm/kg
Osmolarity ([2]; 200 mM Citrate, target pH 6.0, t48 h): 557 mOsm/kg
Osmolarity ([2]; 200 mM Citrate, target pH 7.4, t2 h): 488 mOsm/kg
Osmolarity ([2]; 200 mM Citrate, target pH 7.4, t24 h): 484 mOsm/kg
Osmolarity ([2]; 200 mM Citrate, target pH 7.4, t48 h): 549 mOsm/kg
Osmolarity ([2]; 200 mM Histidine/HCl, target pH 6.0, t2 h): 441 mOsm/kg
Osmolarity ([2]; 200 mM Histidine/HCl, target pH 6.0, t24 h): 392 mOsm/kg
Osmolarity ([2]; 200 mM Histidine/HCl, target pH 6.0, t48 h): 477 mOsm/kg
Osmolarity ([2]; 200 mM Histidine/HCl, target pH 7.4, t2 h): 588 mOsm/kg
Osmolarity ([2]; 200 mM Histidine/HCl, target pH 7.4, t24 h): 584 mOsm/kg
Osmolarity ([2]; 200 mM Histidine/HCl, target pH 7.4, t48 h): 616 mOsm/kg
Osmolarity ([2]; 200 mM Histidine/HCl, target pH 8.5, t2 h): 553 mOsm/kg
Osmolarity ([2]; 200 mM Histidine/HCl, target pH 8.5, t24 h): 558 mOsm/kg
Osmolarity ([2]; 200 mM Histidine/HCl, target pH 8.5, t48 h): 678 mOsm/kg
Osmolarity ([2]; 200 mM Potassium Phosphate, target pH 6.0, t2 h): 384 mOsm/kg
Osmolarity ([2]; 200 mM Potassium Phosphate, target pH 6.0, t24 h): 383 mOsm/kg
Osmolarity ([2]; 200 mM Potassium Phosphate, target pH 6.0, t48 h): 376 mOsm/kg
Osmolarity ([2]; 200 mM Potassium Phosphate, target pH 7.4, t2 h): 462 mOsm/kg
Osmolarity ([2]; 200 mM Potassium Phosphate, target pH 7.4, t24 h): 471 mOsm/kg
Osmolarity ([2]; 200 mM Potassium Phosphate, target pH 7.4, t48 h): 481 mOsm/kg
Osmolarity ([2]; 200 mM Potassium Phosphate, target pH 8.5, t2 h): 487 mOsm/kg
Osmolarity ([2]; 200 mM Potassium Phosphate, target pH 8.5, t24 h): 497 mOsm/kg
Osmolarity ([2]; 200 mM Potassium Phosphate, target pH 8.5, t48 h): 423 mOsm/kg
Osmolarity ([2]; 200 mM Sodium Phosphate, target pH 6.0, t2 h): 388 mOsm/kg
Apparent pH [2, 4]: 5.1
Osmolarity [2, 4]: 399 mOsm/kg
Osmolarity ([2]; 200 mM Sodium Phosphate, target pH 6.0, t48 h): 393 mOsm/kg
Osmolarity ([2]; 200 mM Sodium Phosphate, target pH 7.4, t2 h): 330 mOsm/kg
Osmolarity ([2]; 200 mM Sodium Phosphate, target pH 7.4, t24 h): 310 mOsm/kg
Osmolarity ([2]; 200 mM Sodium Phosphate, target pH 7.4, t48 h): 310 mOsm/kg
Osmolarity ([2]; 200 mM Sodium Phosphate, target pH 8.5, t2 h): 282 mOsm/kg
Osmolarity ([2]; 200 mM Sodium Phosphate, target pH 8.5, t24 h): 267 mOsm/kg
Osmolarity ([2]; 200 mM Sodium Phosphate, target pH 8.5, t48 h): 285 mOsm/kg
Osmolarity ([2]; 200 mM Tromethamine, target pH 6.0, t2 h): 403 mOsm/kg
Osmolarity ([2]; 200 mM Tromethamine, target pH 6.0, t24 h): 406 mOsm/kg
Osmolarity ([2]; 200 mM Tromethamine, target pH 6.0, t48 h): 446 mOsm/kg
Osmolarity ([2]; 200 mM Tromethamine, target pH 7.4, t2 h): 434 mOsm/kg
Osmolarity ([2]; 200 mM Tromethamine, target pH 7.4, t24 h): 481 mOsm/kg
Osmolarity ([2]; 200 mM Tromethamine, target pH 7.4, t48 h): 482 mOsm/kg
Osmolarity ([2]; 200 mM Tromethamine, target pH 8.5, t2 h): 403 mOsm/kg
Osmolarity ([2]; 200 mM Tromethamine, target pH 8.5, t24 h): 347 mOsm/kg
Osmolarity ([2]; 200 mM Tromethamine, target pH 8.5, t48 h): 433 mOsm/kg
Osmolarity ([2]; 200 mM Tromethamine/HCl, target pH 6.0, t2 h): 121 mOsm/kg
Osmolarity ([2]; 200 mM Tromethamine/HCl, target pH 6.0, t24 h): 114 mOsm/kg
Osmolarity ([2]; 200 mM Tromethamine/HCl, target pH 6.0, t48 h): 127 mOsm/kg
Osmolarity ([2]; 200 mM Tromethamine/HCl, target pH 7.4, t2 h): 232 mOsm/kg
Osmolarity ([2]; 200 mM Tromethamine/HCl, target pH 7.4, t24 h): 215 mOsm/kg
Osmolarity ([2]; 200 mM Tromethamine/HCl, target pH 7.4, t48 h): 233 mOsm/kg
Apparent pH [2, 5]: 8.8
Osmolarity [2, 5]: 177 mOsm/kg
Osmolarity ([2]; 200 mM Tromethamine/HCl, target pH 8.5, t24 h): 257 mOsm/kg
Osmolarity ([2]; 200 mM Tromethamine/HCl, target pH 8.5, t48 h): 252 mOsm/kg
pH variability [3]: up to 0.3 pH units
SMILES: NS(=O)(=O)c1cc(C(=O)O)c(NCc2ccco2)cc1Cl [furosemide, 4-chloro-2-(furan-2-ylmethylamino)-5-sulfamoyl-benzoic acid]
